This is an account of results in article PMC8480782, “Efficient Dimerization Disruption of Leishmania infantum Trypanothione Reductase by Triazole-phenyl-thiazoles” (Journal of Medicinal Chemistry, 2021).

Assay [1] deals with T1, LiTryR (Leishmania infantum, UniProt A4HSF7).
T1 construct: HIS (N); made in house; host or cells: E. coli BL21 (DE3) Rossetta
The experiment in a line: biochemical. In kind it is biochemical. Particulars: LiTryR; 1 μM TS2; maximum assayed 75 μM; read-out: IC50^act, TryR oxidoreductase activity. The method, then:
A concentration of 1 μM TS2 was used for this initial screening. This low substrate concentration is sufficient for comparison of compound inhibitory activity in the oxidoreductase assay.
Recombinant L. infantum TryR (LiTryR) HIS-tagged and HIS-FLAG-tagged versions were used for all LiTryR oxidoreductase activity and dimer quantitation assays. These LiTryR versions were purified from Escherichia coli as previously described.[25] Briefly, pRSETA-HIS-LiTryR construct alone or in combination with the pET24a-FLAG-LiTryR construct was transformed into BL21 (DE3) Rossetta E. coli strain. An overnight E. coli culture grown at 37 °C in Luria–Bertani (LB) medium with the appropriate antibiotics and vigorous shaking was diluted (1:100) in the same medium and allowed to grow in the same conditions until the OD600 was 0.5. Then, LiTryR expression was induced by addition of 1 mM isopropyl-β-D-1-thiogalactopyranoside (IPTG) for 16 h at 26 °C. The cells were centrifuged for 5 min at 9000g and 4 °C and the wet pellet resuspended in lysis buffer (50 mM Tris, pH 7, 300 mM NaCl, 25 mM imidazole, protease inhibitor cocktail, and 1 mg/mL lysozyme). […] The supernatant was sonicated again as previously described for 10 min and loaded on a HisTrap column (GE Healthcare, Chicago, IL) for 16 h at 4 °C using a P-1 peristaltic pump (GE Healthcare, Chicago, IL). Once loaded, the HisTrap column was connected to an ÄKTA purifier UPC 10 (GE Healthcare, Chicago, IL) and washed using a 5–10% gradient between buffer A (50 mM Tris, pH 7 and 300 mM NaCl) and B (50 mM Tris, pH 7, 300 mM NaCl, and 500 mM imidazole). LiTryR was eluted using a 40% gradient between buffers A and B. Fractions containing recombinant LiTryR were pooled and loaded into a HiPrep 26/10 Desalting column (GE Healthcare, Chicago, IL) previously equilibrated with buffer A. Finally, LiTryR was concentrated to 2 mg/mL using an Amicon Ultra-15 50K (Merck Millipore, Burlington, MA) and an equal volume of glycerol was added before storing at −20 °C.
TryR oxidoreductase activity was determined spectrophotometrically using a modified version of the DTNB-coupled assay described by Hamilton et al.[52] Briefly, reactions were carried out at 26 °C in 250 μL of N-(2-hydroxyethyl)piperazine-N′-ethanesulfonic acid (HEPES) buffer (pH 7.5, 40 mM) containing ethylenediaminetetraacetic acid (EDTA) (1 mM), NADP^+ (30 μM), DTNB (25 μM), TS2 (1 μM), NADPH (150 μM), glycerol (0.02%), DMSO (1.75%), and recombinant TryR (7 nM). […] Reactions were started by addition of a mixture of NADPH and TS2.
TryR oxidoreductase activity was monitored at 26 °C by an increase in absorbance at 412 nm in an EnSpire Multimode Plate Reader (PerkinElmer, Waltham, MA). […] (TNB) concentration was obtained by multiplying the absorbance values by 100 (50 μM TNB generates 0.5 arbitrary units of absorbance at 412 nm). In this DTNB-coupled assay, one molecule of T(SH)2 reduces one molecule of DTNB, producing two TNB molecules. All of the assays were conducted in at least three independent experiments. Data were analyzed using a nonlinear regression model with GraFit 6 software (Erithacus, Horley, Surrey, U.K.).

Assay [2] concerns the target T2, LiTryR dimer (Leishmania infantum, UniProt A4HSF7).
T2 construct: made in house; host or cells: E. coli BL21 (DE3) Rossetta (co-transformed with both plasmids)
As to the kind of experiment: biochemical. The following applies: 400 nM LiTryR, 16 h at 37 °C; read-out: IC50^dim, LiTryR monomer displacement (dimer quantitation ELISA). The method, then: The stability of the LiTryR dimeric form in the presence of 1,2,3-triazole-phenyl-thiazole-based compounds was evaluated using the novel enzyme-linked immunosorbent assay (ELISA) developed in our laboratory.[25] […] Next, the different solutions were centrifuged at 18 000g for 15 min at room temperature. The supernatants (200 μL/well) were added to the α-FLAG-coated plates (Sigma-Aldrich, St. Louis, MO) and incubated for 30 min at 37 °C with agitation in a humid atmosphere. The plates were washed five times with TTBS buffer (2 mM Tris, pH 7.6, 138 mM NaCl, and 0.1% Tween-20) and incubated with diluted monoclonal α-HIS horseradish peroxidase (HRP)-conjugated antibody (200 μL, 1:50 000, Abcam, Cambridge, U.K.) in fatty acid- and essentially globulin-free bovine serum albumin (BSA) (5%) prepared in TTBS buffer for 1 h at room temperature. The plates were washed five times, and o-phenylenediamine dihydrochloride (OPD) substrate prepared according to the manufacturer’s instructions was added. The enzymatic reaction was stopped after 5 min with H2SO4 (100 μL, […]), and the absorbances were measured at 490 nm in an EnSpire Multimode Plate Reader (PerkinElmer, Waltham, MA). All of the assays were conducted in triplicate in at least three independent experiments. Data were analyzed using a nonlinear regression model with GraFit 6 software (Erithacus, Horley, Surrey, U.K.).
On the technique in general: ELISA stands for enzyme-linked immunosorbent assay.

Assay [3] concerns L. infantum promastigotes. The experiment in a line: Leishmanicidal activity on promastigotes (PI exclusion, flow cytometry). The following applies: Leishmania infantum; promastigotes or amastigotes (either form); read-out: EC50 against Leishmania promastigotes or amastigotes. In kind it is cell-based, Leishmania infantum. The method, then: (§1) L. infantum promastigotes (MCAN/ES/89/IPZ229/1/89) were grown in Roswell Park Memorial Institute (RPMI)-1640 medium (Sigma-Aldrich, St. Louis, MO) supplemented with 10% heat-inactivated fetal calf serum (FCS), antibiotics, and 25 mM HEPES (pH 7.2) at 26 °C. L. infantum axenic amastigotes (MCAN/ES/89/IPZ229/1/89) were grown in M199 medium (Invitrogen, Leiden, The Netherlands) supplemented with 10% heat-inactivated FCS, 1 g/L β-alanine, 100 mg/L L-asparagine, 200 mg/L sucrose, 50 mg/L sodium pyruvate, 320 mg/L malic acid, 40 mg/L fumaric acid, 70 mg/L succinic acid, 200 mg/L α-ketoglutaric acid, 300 mg/L citric acid, 1.1 g/L sodium bicarbonate, 5 g/L morpholineethanesulfonic acid (MES), 0.4 mg/L hemin, and 10 mg/L gentamicine, pH 5.4, at 37 °C.
(§2) Drug treatment of L. infantum promastigotes was performed during the logarithmic growth phase at a concentration of 2 × 10^6 parasites/mL at 26 °C for 24 h. […] EC50 was evaluated by flow cytometry by the propidium iodide (PI) exclusion method. After selection of the parasite population based on their forward scatter (FSC) and side scatter (SSC) values, live and dead parasite cells were identified by their permeability to PI. All of the assays were conducted in triplicate in at least three independent experiments. Data were analyzed using a nonlinear regression model with GraFit 6 software (Erithacus, Horley, Surrey, U.K.).
(In general: In flow cytometry, cells or beads pass a laser one at a time.)

Assay [4] relates to L. infantum axenic amastigotes. As to the kind of experiment: Leishmanicidal activity on axenic amastigotes (PI exclusion, flow cytometry). The assay is classed as cell-based, Leishmania infantum. Particulars: for SIa (ratio of EC50 against human cells to EC50 against amastigotes): HepG2 / axenic amastigotes; for EC50: Leishmania infantum, axenic amastigotes, 24 h at 37 °C, read-out: EC50 amastigotes. How it is done: as §1
Axenization was performed by diluting 0.5 mL of a 7-day stationary phase culture of L. infantum promastigotes (2–3 × 10^7 parasites/mL) in 4.5 mL of amastigotes medium and incubating the culture at 37 °C for 2 or 3 days. L. infantum axenic amastigotes apparition was followed by phase-contrast microscopy using an Eclipse Ti inverted microscope (Nikon, Tokyo, Japan).
as §2

For assay [5], the system named is HepG2 cells. The experiment in a line: Cellular toxicity, crystal violet assay. In kind it is cell-based. The following applies: Homo sapiens, HepG2; 24 h, crystal violet method; read-out: EC50 HepG2. How it is done: Liver hepatocellular carcinoma HepG2 cells were grown in Dulbecco’s modified Eagle’s medium (DMEM) (Sigma-Aldrich, St. Louis, MO) with 10% heat-inactivated FCS, antibiotics, and 10 mM HEPES.
Drug treatment of liver hepatocellular carcinoma HepG2 cells was performed at a concentration of 10^5 cells/mL at 37 °C and 5% CO2 for 24 h. EC50 was evaluated by the crystal violet assay. Briefly, cells were washed with phosphate-buffered saline (PBS) and stained with 200 μL of crystal violet solution (0.2% crystal violet, 2% ethanol) for 10 min at room temperature. Next, the plates were washed twice with tap water and allowed to dry. The stained cells were solubilized with 400 μL of 1% sodium dodecyl sulfate (SDS), and the color intensity was quantified at 570 nm using an EnSpire Multimode Plate Reader (PerkinElmer, Waltham, MA). All of the assays were conducted in triplicate in at least three independent experiments. Data were analyzed using a nonlinear regression model with GraFit 6 software (Erithacus, Horley, Surrey, U.K.).

T2 sequence (A4HSF7 1-491): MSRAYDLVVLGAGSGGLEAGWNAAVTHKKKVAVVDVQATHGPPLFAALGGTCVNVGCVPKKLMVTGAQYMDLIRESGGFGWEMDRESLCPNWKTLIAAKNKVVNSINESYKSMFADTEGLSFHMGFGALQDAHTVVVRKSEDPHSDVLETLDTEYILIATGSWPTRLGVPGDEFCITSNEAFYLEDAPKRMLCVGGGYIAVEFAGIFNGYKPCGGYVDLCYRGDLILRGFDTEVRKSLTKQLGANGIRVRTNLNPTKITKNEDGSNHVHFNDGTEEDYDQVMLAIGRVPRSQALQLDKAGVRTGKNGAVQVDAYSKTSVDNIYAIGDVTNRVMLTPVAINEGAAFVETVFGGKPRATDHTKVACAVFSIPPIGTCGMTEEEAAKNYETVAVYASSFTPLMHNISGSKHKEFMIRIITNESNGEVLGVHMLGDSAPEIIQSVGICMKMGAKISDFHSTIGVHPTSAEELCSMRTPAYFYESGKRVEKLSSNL
T1 sequence (A4HSF7 1-491): as above

The IC50 is the point on the concentration scale where inhibition reaches its midpoint. For orientation: EC50 means the concentration at which the effect is half-maximal. `NCCCCc1cn(-c2ccc(-c3nc(-c4ccc(-c5ccccc5)cc4)c(-c4ccccc4)s3)c(OCCN3CCNC3=O)c2)nn1.O=C(O)C(F)(F)F` [19b, 1-(2-(5-(4-(4-Ammoniobutyl)-1H-1,2,3-triazol-1-yl)-2-(4-([1,1′-biphenyl]-4-yl)-5-phenylthiazol-2-yl)phenoxy)ethyl)imidazolidin-2-one 2,2,2-Trifluoroacetate]: the IC50 in assay [1] amounted to 18.4 ± 3.9 µM; in assay [2], 11.3 ± 0.2 µM. Besides, the EC50 was < 10 µM in assay [3], 9.4 ± 0.5 µM in assay [4] and 17.3 ± 0.1 µM in assay [5]. Moreover, in assay [4], the “SIa (ratio of EC50 against human cells to EC50 against amastigotes)” value is listed as “ND/1.8”.
Regarding `NCCCCc1cn(-c2ccc(-c3nc(CCc4ccc(-c5ccccc5)cc4)c(-c4ccccc4)s3)c(OCCN3CCNC3=O)c2)nn1.O=C(O)C(F)(F)F` [19d, 1-(2-(2-(4-(2-([1,1′-Biphenyl]-4-yl)ethyl)-5-phenyl-thiazol-2-yl)-5-(4-(4-ammoniobutyl)-1H-1,2,3-triazol-1-yl)phenoxy)ethyl)imidazolidin-2-one 2,2,2-Trifluoroacetate], the figures for the half-maximal inhibitory concentration (IC50) in assay [1] and in assay [2] were 19.8 ± 2.3 µM and 5.7 ± 0.5 µM, respectively. Besides, the concentration giving a half-maximal response (EC50) in assay [3] was < 10 µM; in assay [4], 9.1 ± 0.2 µM; in assay [5], 12.1 ± 0.1 µM. The “SIa (ratio of EC50 against human cells to EC50 against amastigotes)” value in assay [4] was “ND/1.3”.
In the case of `NCCCCc1cn(-c2ccc(-c3nc(CCc4ccc(Oc5ccccc5)cc4)c(-c4ccccc4)s3)c(OCCN3CCNC3=O)c2)nn1.O=C(O)C(F)(F)F` [19e, 1-(2-(2-(4-(2-([4-Phenyloxyphenyl]-1-yl)ethyl)-5-phenyl-thiazol-2-yl)-5-(4-(4-ammoniobutyl)-1H-1,2,3-triazol-1-yl)phenoxy)ethyl)imidazolidin-2-one 2,2,2-Trifluoroacetate], the figures for the 50% inhibitory concentration (IC50) in assay [1] and in assay [2] were 19.3 ± 3.7 µM and 6.7 ± 1 µM, respectively. The values for the EC50 in assay [3], in assay [4] and in assay [5] were < 10 µM, 8.4 ± 0.1 µM and 6.6 ± 0.6 µM, respectively. Also, the “SIa (ratio of EC50 against human cells to EC50 against amastigotes)” value in assay [4] was “ND/<1”.
